Target: T1, A2bR (Homo sapiens, UniProt P29275)
T1 construct: host or cells: HEK293
T1 sequence (P29275 1-332): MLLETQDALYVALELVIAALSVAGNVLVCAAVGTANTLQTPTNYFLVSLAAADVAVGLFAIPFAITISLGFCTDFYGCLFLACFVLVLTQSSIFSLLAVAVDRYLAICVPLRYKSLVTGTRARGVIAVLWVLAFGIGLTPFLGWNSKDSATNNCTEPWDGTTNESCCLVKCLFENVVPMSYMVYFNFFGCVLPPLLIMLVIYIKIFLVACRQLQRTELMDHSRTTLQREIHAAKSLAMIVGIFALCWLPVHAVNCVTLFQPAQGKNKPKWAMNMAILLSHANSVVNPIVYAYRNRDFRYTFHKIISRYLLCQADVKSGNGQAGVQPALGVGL
Assay: Cre-luciferase reporter assay, HEK293 cells transfected with A2bR
Assay type: cell-based
Conditions: overnight incubation; read-out: A2B (IC50 nM)

IC50: 680 nM
SMILES: Nc1nc(-n2cccn2)nc(-n2cccn2)c1Br [PBF-509]

Source: US20200345725A1, “Methods and Compositions for Treating Cancer” (Omeros Corporation, priority 2019, published 2020)
